Where a name gives a salt, the structure may show the parent alone.
Columns and labels:
[1] = molecular target: VEGFR-1 (Homo sapiens, UniProt P17948); conditions: cited from earlier work
[2] = molecular target: VEGFR-2 (Homo sapiens, UniProt P35968); conditions: cited from earlier work
[3] = molecular target: VEGFR-3 (Homo sapiens, UniProt P35916); conditions: cited from earlier work
[4] = test system: ovarian carcinoma cell line (A2780); assay: Concomitant therapy with TTFields and lenvatinib, cell count and apoptosis; type: cell-based; conditions: A2780 cells, 4 μM Lenvatinib combined with TTFields vs either therapy alone
Description: FIG. 5 contains photomicrographs of A2780 cells following TTFields treatment alone, treatment with 4 μM Lenvatinib, and concomitant therapy with both TTFields and 4 μM Lenvatinib.
In particular, the combinatorial effect of TTFields and lenvatinib was examined in an ovarian carcinoma cell line (A2780).

VEGFR-2, sequence (P35968 20-1356, species assumed): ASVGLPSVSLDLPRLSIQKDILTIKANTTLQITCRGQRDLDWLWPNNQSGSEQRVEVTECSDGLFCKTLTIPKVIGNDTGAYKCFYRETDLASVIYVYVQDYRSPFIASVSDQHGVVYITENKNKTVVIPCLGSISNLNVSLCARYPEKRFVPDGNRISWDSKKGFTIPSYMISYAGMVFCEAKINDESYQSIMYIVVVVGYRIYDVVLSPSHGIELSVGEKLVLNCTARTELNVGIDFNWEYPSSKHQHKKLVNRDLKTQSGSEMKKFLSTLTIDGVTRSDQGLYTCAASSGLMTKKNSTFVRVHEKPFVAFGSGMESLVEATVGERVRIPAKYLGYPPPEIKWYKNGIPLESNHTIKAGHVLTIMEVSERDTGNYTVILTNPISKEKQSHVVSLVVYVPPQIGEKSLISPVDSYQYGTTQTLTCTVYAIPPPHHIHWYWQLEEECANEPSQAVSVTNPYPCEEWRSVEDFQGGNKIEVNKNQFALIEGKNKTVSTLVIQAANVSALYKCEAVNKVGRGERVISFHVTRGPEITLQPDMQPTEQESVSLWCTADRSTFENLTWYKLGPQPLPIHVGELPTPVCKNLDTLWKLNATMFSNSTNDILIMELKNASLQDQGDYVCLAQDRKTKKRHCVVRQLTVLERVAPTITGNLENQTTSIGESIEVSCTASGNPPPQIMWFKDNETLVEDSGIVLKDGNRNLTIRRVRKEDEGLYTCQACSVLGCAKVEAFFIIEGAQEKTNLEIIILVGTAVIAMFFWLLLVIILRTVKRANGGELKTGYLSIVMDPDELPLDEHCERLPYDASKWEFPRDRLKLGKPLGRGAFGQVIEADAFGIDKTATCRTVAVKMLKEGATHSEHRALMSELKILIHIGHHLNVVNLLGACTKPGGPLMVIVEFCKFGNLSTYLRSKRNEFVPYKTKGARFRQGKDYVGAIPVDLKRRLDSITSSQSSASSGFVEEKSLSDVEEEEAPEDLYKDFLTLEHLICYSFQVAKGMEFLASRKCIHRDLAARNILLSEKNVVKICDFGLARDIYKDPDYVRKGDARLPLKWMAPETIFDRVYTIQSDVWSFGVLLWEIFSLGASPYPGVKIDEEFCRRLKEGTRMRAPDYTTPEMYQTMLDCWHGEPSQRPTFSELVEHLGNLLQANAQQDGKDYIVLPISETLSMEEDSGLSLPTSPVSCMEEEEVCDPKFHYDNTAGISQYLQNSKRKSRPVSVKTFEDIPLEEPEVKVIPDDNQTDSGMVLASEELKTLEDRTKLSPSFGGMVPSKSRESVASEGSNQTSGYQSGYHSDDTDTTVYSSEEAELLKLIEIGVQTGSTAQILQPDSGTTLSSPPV
VEGFR-3, sequence (P35916 25-1363, species assumed): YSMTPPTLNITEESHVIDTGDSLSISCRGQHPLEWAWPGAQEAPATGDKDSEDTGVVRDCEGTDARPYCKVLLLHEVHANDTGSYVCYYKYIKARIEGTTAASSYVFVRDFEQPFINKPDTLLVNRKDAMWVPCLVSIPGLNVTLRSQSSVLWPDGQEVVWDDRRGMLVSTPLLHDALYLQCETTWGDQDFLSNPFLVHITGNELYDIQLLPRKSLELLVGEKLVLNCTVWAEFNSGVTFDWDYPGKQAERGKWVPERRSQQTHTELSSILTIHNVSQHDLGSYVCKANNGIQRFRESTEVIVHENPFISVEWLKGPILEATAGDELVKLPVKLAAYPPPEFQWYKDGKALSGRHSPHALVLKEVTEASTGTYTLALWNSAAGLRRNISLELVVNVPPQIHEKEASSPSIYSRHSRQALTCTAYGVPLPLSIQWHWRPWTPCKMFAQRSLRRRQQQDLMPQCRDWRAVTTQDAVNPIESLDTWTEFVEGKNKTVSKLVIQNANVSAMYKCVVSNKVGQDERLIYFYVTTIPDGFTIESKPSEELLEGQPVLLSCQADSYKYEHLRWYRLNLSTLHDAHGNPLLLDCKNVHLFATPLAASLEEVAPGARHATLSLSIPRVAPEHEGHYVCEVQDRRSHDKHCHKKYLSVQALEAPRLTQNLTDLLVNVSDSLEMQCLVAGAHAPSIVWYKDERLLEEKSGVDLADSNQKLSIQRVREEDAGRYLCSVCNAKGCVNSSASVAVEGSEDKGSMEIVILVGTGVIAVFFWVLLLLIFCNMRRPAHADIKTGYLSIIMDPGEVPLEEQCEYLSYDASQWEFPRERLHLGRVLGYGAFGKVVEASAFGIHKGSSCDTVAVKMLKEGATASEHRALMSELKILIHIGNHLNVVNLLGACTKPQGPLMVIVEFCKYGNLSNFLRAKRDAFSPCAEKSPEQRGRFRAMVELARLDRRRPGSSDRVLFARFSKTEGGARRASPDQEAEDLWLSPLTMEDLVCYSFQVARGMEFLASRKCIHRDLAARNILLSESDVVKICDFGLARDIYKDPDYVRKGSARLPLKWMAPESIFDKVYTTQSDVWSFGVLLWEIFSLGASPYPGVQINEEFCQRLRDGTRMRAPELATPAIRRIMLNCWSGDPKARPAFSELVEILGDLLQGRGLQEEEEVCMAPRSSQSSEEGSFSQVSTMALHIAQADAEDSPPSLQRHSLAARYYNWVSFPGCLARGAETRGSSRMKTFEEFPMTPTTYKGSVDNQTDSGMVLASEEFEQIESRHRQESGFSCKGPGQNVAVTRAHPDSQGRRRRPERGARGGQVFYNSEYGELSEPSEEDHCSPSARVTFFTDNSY
VEGFR-1, sequence (P17948 27-1338, species assumed): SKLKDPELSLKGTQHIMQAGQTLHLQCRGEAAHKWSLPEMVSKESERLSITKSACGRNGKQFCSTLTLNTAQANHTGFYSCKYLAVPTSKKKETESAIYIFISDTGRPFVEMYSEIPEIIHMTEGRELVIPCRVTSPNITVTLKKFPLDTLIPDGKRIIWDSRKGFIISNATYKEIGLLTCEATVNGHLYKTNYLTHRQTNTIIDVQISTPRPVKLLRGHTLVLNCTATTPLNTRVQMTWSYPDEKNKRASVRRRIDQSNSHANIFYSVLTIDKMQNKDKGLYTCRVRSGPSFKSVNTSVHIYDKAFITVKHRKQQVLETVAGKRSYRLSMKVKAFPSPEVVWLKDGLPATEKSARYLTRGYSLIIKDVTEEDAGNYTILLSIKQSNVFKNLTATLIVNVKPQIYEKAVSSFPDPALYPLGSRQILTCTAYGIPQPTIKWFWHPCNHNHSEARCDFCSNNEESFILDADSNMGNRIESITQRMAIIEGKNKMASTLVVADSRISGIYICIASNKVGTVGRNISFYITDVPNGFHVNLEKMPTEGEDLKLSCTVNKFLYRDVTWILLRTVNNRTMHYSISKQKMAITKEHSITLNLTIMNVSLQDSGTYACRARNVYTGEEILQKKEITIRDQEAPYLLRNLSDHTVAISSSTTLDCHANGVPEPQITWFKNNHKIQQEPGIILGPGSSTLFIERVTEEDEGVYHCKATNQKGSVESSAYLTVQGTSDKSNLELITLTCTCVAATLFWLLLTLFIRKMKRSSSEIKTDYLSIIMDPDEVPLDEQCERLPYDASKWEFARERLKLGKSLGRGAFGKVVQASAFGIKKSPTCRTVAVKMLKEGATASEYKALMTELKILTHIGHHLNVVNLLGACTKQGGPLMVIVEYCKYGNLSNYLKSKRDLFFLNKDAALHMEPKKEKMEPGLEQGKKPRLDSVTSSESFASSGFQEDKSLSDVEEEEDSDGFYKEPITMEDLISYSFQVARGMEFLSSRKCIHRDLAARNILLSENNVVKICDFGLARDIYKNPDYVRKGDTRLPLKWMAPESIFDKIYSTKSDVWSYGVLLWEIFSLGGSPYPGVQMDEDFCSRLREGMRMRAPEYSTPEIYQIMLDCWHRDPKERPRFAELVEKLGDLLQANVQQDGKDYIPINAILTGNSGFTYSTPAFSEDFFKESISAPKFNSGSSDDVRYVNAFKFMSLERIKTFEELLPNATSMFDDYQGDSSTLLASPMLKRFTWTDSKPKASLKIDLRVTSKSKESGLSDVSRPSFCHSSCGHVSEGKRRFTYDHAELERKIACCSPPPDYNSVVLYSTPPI

Structure (SMILES)	IC50 [2]	other results
COc1cc2c(Oc3ccc4[nH]c(C)cc4c3F)ccnc2cc1OCC1(N)CC1 [Anlotinib]	< 1 nM	IC50 for VEGFR-1 [1]: Does not bind; IC50 for VEGFR-3 [3]: Does not bind
COc1cc2nccc(Oc3ccc(NC(=O)C4(C(=O)Nc5ccc(F)cc5)CC4)cc3)c2cc1OC [Cabozantinib]	–	IC50 for VEGFR-3 [3]: Does not bind
COc1cc2nccc(Oc3ccc(NC(=O)Nc4ccc(F)cc4F)c(F)c3)c2cc1OC [Ki8751]	0.9 nM	–
COc1cc2nccc(Oc3ccc(NC(=O)NC4CC4)c(Cl)c3)c2cc1C(N)=O [Lenvatinib]	–	effect of concomitant therapy on apoptosis [4]: enhanced effect over either therapy alone; effect of concomitant therapy on cell count [4]: enhanced effect over either therapy alone
Cc1c(C(=O)Nc2ccc(Oc3ccnc4cc(OCC(C)(C)O)ccc34)c(F)c2)c(=O)n(-c2ccccc2)n1C [Ningetinib]	1.9 nM	–
Cn1cc(-c2ccc3c(c2)ncn3-c2cc(NS(=O)(=O)C3CC3)cc(-c3ccc(F)cc3F)c2)cn1 [ODM-203]	9 nM	IC50 [1]: 26 nM; IC50 [3]: 5 nM
COc1cc2c(cc1F)C(c1ccccc1Cl)=Nc1c(n[nH]c1C)N2 [R1530]	10 nM	–
Cc1[nH]c(/C=C2\C(=O)Nc3ccc(F)cc32)c(C)c1C(=O)NC[C@H](O)CN1CCOCC1 [SU14813]	50 nM	IC50 [1]: 2 nM
CNC(=O)c1cc2c(Oc3ccc(NC(=O)C4(C(=O)Nc5ccc(F)cc5)CC4)cc3)ccnc2cc1OC [XL092]	1.6 nM	–
Cc1cc(F)c(Nc2ncnc3cc(OCc4ccccc4)ccc23)cc1O [ZM 323881 HCl]	< 2 nM	–

From patent publication US20230405316A1, “COMPOSITIONS, SYSTEMS, AND METHODS FOR TREATING CANCER USING TUMOR TREATING FIELDS AND VEGF INHIBITORS” (Novocure Gmbh, priority 2022, published 2023)
